Results: PubChem BioAssay AID1963828 (Molecular Pharmacology Branch, DTP, NCI, 2024)

Test system: 991263-137-R1-J2-PDC complex spheroid viability
Experiment: Anticancer human tumor 991263-137-R1-J2-PDC patient-derived colon adenocarcinoma cell line growth inhibition [POLQ]
Conditions: for IC50: curve of first compound; for viability, T/C: stronger effect = lower value
Outline: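 Complex spheroid viability model combining PDC tumour cells with endothelial (HUVEC) and MSC stromal cells. Novobiocin, ART-558 or RP6685 were tested singly and in combination with standard and investigational anticancer drugs. Each was titrated in half-log steps from near clinical Cmax, or from 10 microM where Cmax was unknown.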

[1] = second compound 0.0316 µM, first compound 0.0316 µM
[2] = second compound 0.0316 µM, first compound 0.1 µM
[3] = second compound 0.0316 µM, first compound 0.316 µM
[4] = second compound 0.0316 µM, first compound 1 µM
[5] = second compound 0.0316 µM, first compound 3.16 µM
[6] = second compound 0.0316 µM, first compound 10 µM
[7] = second compound 0.1 µM, first compound 0.0316 µM
[8] = second compound 0.1 µM, first compound 0.1 µM
[9] = second compound 0.1 µM, first compound 0.316 µM
[10] = second compound 0.1 µM, first compound 1 µM
[11] = second compound 0.1 µM, first compound 3.16 µM
[12] = second compound 0.1 µM, first compound 10 µM
[13] = second compound 0.316 µM, first compound 0.0316 µM
[14] = second compound 0.316 µM, first compound 0.1 µM
[15] = second compound 0.316 µM, first compound 0.316 µM
[16] = second compound 0.316 µM, first compound 1 µM
[17] = second compound 0.316 µM, first compound 3.16 µM
[18] = second compound 0.316 µM, first compound 10 µM
[19] = second compound 1 µM, first compound 0.0316 µM
[20] = second compound 1 µM, first compound 0.1 µM
[21] = second compound 1 µM, first compound 0.316 µM
[22] = second compound 1 µM, first compound 1 µM
[23] = second compound 1 µM, first compound 3.16 µM
[24] = second compound 1 µM, first compound 10 µM
[25] = second compound 3.16 µM, first compound 0.0316 µM
[26] = second compound 3.16 µM, first compound 0.1 µM
[27] = second compound 3.16 µM, first compound 0.316 µM
[28] = second compound 3.16 µM, first compound 1 µM
[29] = second compound 3.16 µM, first compound 3.16 µM
[30] = second compound 3.16 µM, first compound 10 µM
[31] = second compound 10 µM, first compound 0.0316 µM
[32] = second compound 10 µM, first compound 0.1 µM
[33] = second compound 10 µM, first compound 0.316 µM
[34] = second compound 10 µM, first compound 1 µM
[35] = second compound 10 µM, first compound 3.16 µM
[36] = second compound 10 µM, first compound 10 µM
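Also: spheroids exposed to compounds for 7 days before readout.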
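For viability, T/C in this document: 100% = DMSO vehicle control viability.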

CC1COCCN1c1cc(-c2ccnn2C)c2ccnc(-c3ccn[nH]3)c2n1 (stereo unspecified) + COC1C(OC(N)=O)C(O)C(Oc2ccc3c(O)c(NC(=O)c4ccc(O)c(CC=C(C)C)c4)c(=O)oc3c2C)OC1(C)C
IC50 (second compound 0.0316 µM): 0.745 µM | IC50 (second compound 0.1 µM): 0.709 µM | IC50 (second compound 0.316 µM): 0.679 µM | IC50 (second compound 1 µM): 0.764 µM | IC50 (second compound 3.16 µM): 0.698 µM | IC50 (second compound 10 µM): 1.34 µM | viability, T/C [1]: 92.3% | viability, T/C [2]: 95.7% | viability, T/C [3]: 76.7% | viability, T/C [4]: 40.9% | viability, T/C [5]: 33.4% | viability, T/C [6]: 30% | viability, T/C [7]: 98.2% | viability, T/C [8]: 101% | viability, T/C [9]: 76% | viability, T/C [10]: 40.2% | viability, T/C [11]: 23.1% | viability, T/C [12]: 31.7% | viability, T/C [13]: 97.6% | viability, T/C [14]: 108% | viability, T/C [15]: 63.3% | viability, T/C [16]: 46% | viability, T/C [17]: 26.4% | viability, T/C [18]: 23.4% | viability, T/C [19]: 89.6% | viability, T/C [20]: 104% | viability, T/C [21]: 75.7% | viability, T/C [22]: 43.1% | viability, T/C [23]: 35.7% | viability, T/C [24]: 29.9% | viability, T/C [25]: 88.4% | viability, T/C [26]: 101% | viability, T/C [27]: 69.5% | viability, T/C [28]: 42.2% | viability, T/C [29]: 33% | viability, T/C [30]: 26.9% | viability, T/C [31]: 82.1% | viability, T/C [32]: 95% | viability, T/C [33]: 85.7% | viability, T/C [34]: 54.9% | viability, T/C [35]: 36.9% | viability, T/C [36]: 30.8%

CC1COCCN1c1cc(C2(S(C)(=N)=O)CC2)nc(-c2ccnc3[nH]ccc23)n1 (stereo unspecified) + COC1C(OC(N)=O)C(O)C(Oc2ccc3c(O)c(NC(=O)c4ccc(O)c(CC=C(C)C)c4)c(=O)oc3c2C)OC1(C)C
IC50 (second compound 0.0316 µM): > 10 µM | IC50 (second compound 0.1 µM): > 10 µM | IC50 (second compound 0.316 µM): > 10 µM | IC50 (second compound 1 µM): > 10 µM | IC50 (second compound 3.16 µM): > 10 µM | IC50 (second compound 10 µM): > 10 µM | viability, T/C [1]: 99.2% | viability, T/C [2]: 84.5% | viability, T/C [3]: 104% | viability, T/C [4]: 87% | viability, T/C [5]: 91.5% | viability, T/C [6]: 66.1% | viability, T/C [7]: 113% | viability, T/C [8]: 112% | viability, T/C [9]: 101% | viability, T/C [10]: 89.2% | viability, T/C [11]: 97.6% | viability, T/C [12]: 55.4% | viability, T/C [13]: 96.3% | viability, T/C [14]: 106% | viability, T/C [15]: 89.9% | viability, T/C [16]: 69.6% | viability, T/C [17]: 104% | viability, T/C [18]: 83.8% | viability, T/C [19]: 106% | viability, T/C [20]: 103% | viability, T/C [21]: 91.2% | viability, T/C [22]: 89.5% | viability, T/C [23]: 96.5% | viability, T/C [24]: 79.9% | viability, T/C [25]: 92.8% | viability, T/C [26]: 85.9% | viability, T/C [27]: 98.3% | viability, T/C [28]: 106% | viability, T/C [29]: 103% | viability, T/C [30]: 84% | viability, T/C [31]: 86.8% | viability, T/C [32]: 106% | viability, T/C [33]: 105% | viability, T/C [34]: 96.6% | viability, T/C [35]: 107% | viability, T/C [36]: 70.9%

CCCS(=O)(=O)Nc1ccc(F)c(C(=O)c2c[nH]c3ncc(-c4ccc(Cl)cc4)cc23)c1F + COC1C(OC(N)=O)C(O)C(Oc2ccc3c(O)c(NC(=O)c4ccc(O)c(CC=C(C)C)c4)c(=O)oc3c2C)OC1(C)C
IC50 (second compound 0.0316 µM): > 10 µM | IC50 (second compound 0.1 µM): > 10 µM | IC50 (second compound 0.316 µM): > 10 µM | IC50 (second compound 1 µM): > 10 µM | IC50 (second compound 3.16 µM): > 10 µM | IC50 (second compound 10 µM): > 10 µM | viability, T/C [1]: 110% | viability, T/C [2]: 98.7% | viability, T/C [3]: 106% | viability, T/C [4]: 105% | viability, T/C [5]: 102% | viability, T/C [6]: 104% | viability, T/C [7]: 82% | viability, T/C [8]: 109% | viability, T/C [9]: 97.5% | viability, T/C [10]: 85.5% | viability, T/C [11]: 129% | viability, T/C [12]: 109% | viability, T/C [13]: 96.9% | viability, T/C [14]: 94.9% | viability, T/C [15]: 121% | viability, T/C [16]: 130% | viability, T/C [17]: 97.9% | viability, T/C [18]: 108% | viability, T/C [19]: 105% | viability, T/C [20]: 103% | viability, T/C [21]: 121% | viability, T/C [22]: 95.9% | viability, T/C [23]: 105% | viability, T/C [24]: 84.8% | viability, T/C [25]: 102% | viability, T/C [26]: 124% | viability, T/C [27]: 99.7% | viability, T/C [28]: 105% | viability, T/C [29]: 89.9% | viability, T/C [30]: 97.6% | viability, T/C [31]: 94.2% | viability, T/C [32]: 118% | viability, T/C [33]: 95.2% | viability, T/C [34]: 111% | viability, T/C [35]: 113% | viability, T/C [36]: 110%
